Laboratory results: patent publication US20250302832A1, “PYRAZINE DERIVATIVES AND USES THEREOF” (FOGHORN THERAPEUTICS INC., priority 2022, published 2025)

Key:
HiBit-BRM fusion protein = biological target: T1, HiBit-BRM fusion protein (Homo sapiens, UniProt P51531); test: HiBiT-BRM cell-based degradation assay (Nano-Glo HiBiT lytic detection, 24 h); conditions: HeLa cell line expressing HiBiT-BRM; for DC50: read-out: BRM HiBit Degradation IC50
T1 construct: expressed in transfected cells
How it was run: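 Luminescence from LgBiT complementation quantified remaining HiBiT-BRM in stably expressing HeLa cells after 24 h compound exposure (top final dose 30 μM, 3-fold, 10 points, duplicate). Degradation expressed as percent relative to DMSO and a 2 μM reference degrader.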

[1] = biological target: T2, HiBit-BRG1 fusion protein (Homo sapiens, UniProt P51532); test: HiBiT-BRG1 cell-based degradation assay (Nano-Glo HiBiT lytic detection, 24 h); conditions: HeLa cell line expressing HiBit-BRG1 and LgBit; for Dmax: read-out: BRG1 HiBit Degradation Maximum (%); for DC50: read-out: BRMG1 HiBit Degradation IC50
T2 construct: expressed in transfected cells
T2 sequence (P51532 whole entry, the tested form may be a part): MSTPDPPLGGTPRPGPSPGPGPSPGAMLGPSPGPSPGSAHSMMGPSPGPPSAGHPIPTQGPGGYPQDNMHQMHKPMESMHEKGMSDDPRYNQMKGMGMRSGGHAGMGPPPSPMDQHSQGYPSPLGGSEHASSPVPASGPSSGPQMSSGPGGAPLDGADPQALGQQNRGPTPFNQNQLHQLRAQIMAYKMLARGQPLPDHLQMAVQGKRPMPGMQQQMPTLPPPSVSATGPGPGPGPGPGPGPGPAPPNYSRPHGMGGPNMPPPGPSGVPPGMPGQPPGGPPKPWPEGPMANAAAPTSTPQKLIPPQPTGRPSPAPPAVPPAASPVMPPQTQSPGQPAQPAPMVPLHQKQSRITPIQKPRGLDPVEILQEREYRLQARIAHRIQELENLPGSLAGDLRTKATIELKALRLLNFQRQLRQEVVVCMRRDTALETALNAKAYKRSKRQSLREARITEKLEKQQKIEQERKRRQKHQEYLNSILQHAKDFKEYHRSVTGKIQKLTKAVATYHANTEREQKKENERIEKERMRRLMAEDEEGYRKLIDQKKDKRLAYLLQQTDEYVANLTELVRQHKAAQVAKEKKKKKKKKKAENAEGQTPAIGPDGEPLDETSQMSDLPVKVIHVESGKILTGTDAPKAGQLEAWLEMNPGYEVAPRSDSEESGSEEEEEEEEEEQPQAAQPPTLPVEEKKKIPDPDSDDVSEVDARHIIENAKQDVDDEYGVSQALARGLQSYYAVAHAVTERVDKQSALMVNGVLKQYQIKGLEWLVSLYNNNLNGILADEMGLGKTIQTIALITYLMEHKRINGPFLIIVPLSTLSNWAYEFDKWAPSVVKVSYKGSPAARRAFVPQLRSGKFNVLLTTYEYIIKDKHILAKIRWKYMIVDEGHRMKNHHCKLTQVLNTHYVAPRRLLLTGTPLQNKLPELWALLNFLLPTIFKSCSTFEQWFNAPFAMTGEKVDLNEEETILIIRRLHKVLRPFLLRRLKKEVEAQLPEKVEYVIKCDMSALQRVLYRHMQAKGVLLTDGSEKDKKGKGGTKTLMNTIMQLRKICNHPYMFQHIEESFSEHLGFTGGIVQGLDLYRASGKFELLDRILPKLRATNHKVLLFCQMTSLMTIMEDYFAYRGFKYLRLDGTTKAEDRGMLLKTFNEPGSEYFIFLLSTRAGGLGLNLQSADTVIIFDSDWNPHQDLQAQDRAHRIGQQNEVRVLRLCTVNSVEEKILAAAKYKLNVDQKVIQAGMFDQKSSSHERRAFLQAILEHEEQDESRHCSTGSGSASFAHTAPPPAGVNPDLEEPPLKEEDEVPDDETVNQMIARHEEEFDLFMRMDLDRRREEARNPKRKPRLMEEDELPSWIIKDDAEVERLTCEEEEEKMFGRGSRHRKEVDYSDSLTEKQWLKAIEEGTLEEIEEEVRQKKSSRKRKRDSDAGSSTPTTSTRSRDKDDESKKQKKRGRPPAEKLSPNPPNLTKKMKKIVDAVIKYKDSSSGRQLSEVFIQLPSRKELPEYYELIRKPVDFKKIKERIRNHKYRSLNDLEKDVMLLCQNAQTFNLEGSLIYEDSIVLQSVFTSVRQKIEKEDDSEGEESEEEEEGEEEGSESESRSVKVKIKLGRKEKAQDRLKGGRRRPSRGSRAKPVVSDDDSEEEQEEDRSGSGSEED
How it was run: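 Luminescence from HiBiT/LgBiT complementation after lytic detection reagent was read following 24 h compound exposure of HeLa cells stably carrying HiBiT-BRG1 plus LgBiT (5000 cells/well). Signal scaled to % degradation using DMSO-treated cells as 0% and cells given 2 μM known BRM/BRG1 degrader as 100%.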

T1 sequence (P51531 whole entry, the tested form may be a part): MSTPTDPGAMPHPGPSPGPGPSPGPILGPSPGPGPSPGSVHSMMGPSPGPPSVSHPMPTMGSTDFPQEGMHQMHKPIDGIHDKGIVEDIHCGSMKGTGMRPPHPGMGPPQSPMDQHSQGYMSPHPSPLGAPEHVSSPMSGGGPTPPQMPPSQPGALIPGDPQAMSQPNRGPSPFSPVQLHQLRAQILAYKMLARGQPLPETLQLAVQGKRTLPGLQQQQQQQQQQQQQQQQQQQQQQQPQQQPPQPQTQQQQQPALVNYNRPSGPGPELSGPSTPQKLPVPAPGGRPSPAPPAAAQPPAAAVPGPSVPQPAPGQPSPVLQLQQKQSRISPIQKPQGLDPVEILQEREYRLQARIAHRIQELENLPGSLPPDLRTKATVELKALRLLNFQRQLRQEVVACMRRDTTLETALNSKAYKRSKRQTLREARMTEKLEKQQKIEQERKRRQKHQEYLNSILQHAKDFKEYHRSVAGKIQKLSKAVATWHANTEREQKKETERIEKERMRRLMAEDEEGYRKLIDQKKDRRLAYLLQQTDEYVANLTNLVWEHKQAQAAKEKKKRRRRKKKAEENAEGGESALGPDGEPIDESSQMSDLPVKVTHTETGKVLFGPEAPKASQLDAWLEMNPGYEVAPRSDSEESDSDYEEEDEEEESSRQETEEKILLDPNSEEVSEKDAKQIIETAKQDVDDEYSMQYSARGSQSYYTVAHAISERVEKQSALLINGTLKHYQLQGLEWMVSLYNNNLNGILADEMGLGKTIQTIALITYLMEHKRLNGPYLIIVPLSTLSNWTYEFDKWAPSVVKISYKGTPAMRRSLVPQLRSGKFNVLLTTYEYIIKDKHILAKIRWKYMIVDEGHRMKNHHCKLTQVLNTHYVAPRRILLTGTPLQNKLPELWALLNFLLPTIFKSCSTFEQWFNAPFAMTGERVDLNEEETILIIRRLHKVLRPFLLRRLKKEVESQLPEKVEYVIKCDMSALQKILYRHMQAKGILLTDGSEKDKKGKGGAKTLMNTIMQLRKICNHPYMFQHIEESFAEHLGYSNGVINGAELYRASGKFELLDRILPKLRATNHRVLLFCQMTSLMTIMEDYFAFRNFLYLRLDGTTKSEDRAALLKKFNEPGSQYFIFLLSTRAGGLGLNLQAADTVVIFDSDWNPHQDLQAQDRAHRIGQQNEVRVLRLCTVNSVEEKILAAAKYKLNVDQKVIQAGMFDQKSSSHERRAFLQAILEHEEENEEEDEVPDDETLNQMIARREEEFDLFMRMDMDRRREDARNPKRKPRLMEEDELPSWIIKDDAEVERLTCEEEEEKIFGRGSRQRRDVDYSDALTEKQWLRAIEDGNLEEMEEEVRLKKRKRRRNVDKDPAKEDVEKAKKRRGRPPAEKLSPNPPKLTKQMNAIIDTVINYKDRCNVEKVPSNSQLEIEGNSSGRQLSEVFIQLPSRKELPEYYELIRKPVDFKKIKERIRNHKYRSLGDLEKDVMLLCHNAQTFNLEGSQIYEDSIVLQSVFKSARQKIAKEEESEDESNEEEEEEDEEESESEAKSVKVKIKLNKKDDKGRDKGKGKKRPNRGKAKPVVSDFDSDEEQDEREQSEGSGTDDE

Cc1ncsc1-c1ccc([C@H](C)NC(=O)[C@@H]2C[C@@H](O)CN2C(=O)[C@@H](c2cc(OCCN3CCN(c4cc5nnc(-c6ccccc6O)cc5n4C)CC3)no2)C(C)C)cc1 [Compound 27, (2S,4R)-4-hydroxy-1-[(2R)-2-[3-(2-{4-[3-(2-hydroxyphenyl)-5-methylpyrrolo[3,2-c]pyridazin-6-yl]piperazin-1-yl}ethoxy)-1,2-oxazol-5-yl]-3-methylbutanoyl]-N-[(1S)-1-[4-(4-methyl-1,3-thiazol-5-yl)phenyl]ethyl]pyrrolidine-2-carboxamide]
BRM HiBit Degradation Maximum (%) (HiBit-BRM fusion protein): A (“A” indicates maximum degradation ≥75%) | DC50 (HiBit-BRM fusion protein): < 10 nM | Dmax [1]: > 75% | DC50 [1]: > 10 nM

Cc1ncsc1-c1ccc([C@H](C)NC(=O)[C@@H]2C[C@@H](O)CN2C(=O)[C@@H](c2cc(-c3cnc(N4CCN(c5cc6nnc(-c7ccccc7O)cc6n5C)CC4)nc3)no2)C(C)C)cc1 [Compound 28, (2S,4R)-4-hydroxy-1-[(2R)-2-[3-(2-{4-[3-(2-hydroxyphenyl)-5-methylpyrrolo[3,2-c]pyridazin-6-yl]piperazin-1-yl}pyrimidin-5-yl)-1,2-oxazol-5-yl]-3-methylbutanoyl]-N-[(1S)-1-[4-(4-methyl-1,3-thiazol-5-yl)phenyl]ethyl]pyrrolidine-2-carboxamide]
BRM HiBit Degradation Maximum (%) (HiBit-BRM fusion protein): A (“A” indicates maximum degradation ≥75%) | DC50 (HiBit-BRM fusion protein): < 10 nM | Dmax [1]: > 75% | DC50 [1]: < 10 nM

Cc1ncsc1-c1ccc([C@H](C)NC(=O)[C@@H]2C[C@@H](O)CN2C(=O)[C@H](c2cc(-c3cnc(N4CCN(c5cc6nnc(-c7ccccc7O)cc6n5C)CC4)nc3)no2)C(C)C)cc1 [Compound 29, (2S,4R)-4-hydroxy-1-[(2S)-2-[3-(2-{4-[3-(2-hydroxyphenyl)-5-methylpyrrolo[3,2-c]pyridazin-6-yl]piperazin-1-yl}pyrimidin-5-yl)-1,2-oxazol-5-yl]-3-methylbutanoyl]-N-[(1S)-1-[4-(4-methyl-1,3-thiazol-5-yl)phenyl]ethyl]pyrrolidine-2-carboxamide]
BRM HiBit Degradation Maximum (%) (HiBit-BRM fusion protein): A (“A” indicates maximum degradation ≥75%) | DC50 (HiBit-BRM fusion protein): > 10 nM | Dmax [1]: < 50%

Cc1ncsc1-c1ccc([C@H](C)NC(=O)[C@@H]2C[C@@H](O)CN2C(=O)[C@@H](c2cc(OCCN3CCC(O)(c4cc5nnc(-c6ccccc6O)cc5n4C)CC3)no2)C(C)C)cc1 [Compound 30, (2S,4R)-4-hydroxy-1-[(2R)-2-[3-(2-{4-hydroxy-4-[3-(2-hydroxyphenyl)-5-methylpyrrolo[3,2-c]pyridazin-6-yl]piperidin-1-yl}ethoxy)-1,2-oxazol-5-yl]-3-methylbutanoyl]-N-[(1S)-1-[4-(4-methyl-1,3-thiazol-5-yl)phenyl]ethyl]pyrrolidine-2-carboxamide]
BRM HiBit Degradation Maximum (%) (HiBit-BRM fusion protein): A (“A” indicates maximum degradation ≥75%) | DC50 (HiBit-BRM fusion protein): > 10 nM | Dmax [1]: > 75% | DC50 [1]: > 100 nM

Cc1ncsc1-c1ccc([C@H](C)NC(=O)[C@@H]2C[C@@H](O)CN2C(=O)[C@@H](c2cc(OCCN3CC(n4ccc5nnc(-c6ccccc6O)cc54)C3)no2)C(C)C)cc1 [Compound 31, (2S,4R)-4-hydroxy-1-[(2R)-2-[3-(2-{3-[3-(2-hydroxyphenyl)pyrrolo[3,2-c]pyridazin-5-yl]azetidin-1-yl}ethoxy)-1,2-oxazol-5-yl]-3-methylbutanoyl]-N-[(1S)-1-[4-(4-methyl-1,3-thiazol-5-yl)phenyl]ethyl]pyrrolidine-2-carboxamide]
BRM HiBit Degradation Maximum (%) (HiBit-BRM fusion protein): B (“B” indicates maximum degradation ≥50%) | DC50 (HiBit-BRM fusion protein): > 10 nM | Dmax [1]: < 50%

Cc1ncsc1-c1ccc([C@H](C)NC(=O)[C@@H]2C[C@@H](O)CN2C(=O)[C@@H](c2cc(OCCN3CC(n4cc(C(F)F)c5nnc(-c6ccccc6O)cc54)C3)no2)C(C)C)cc1 [Compound 32, (2S,4R)-1-((R)-2-(3-(2-(3-(7-(difluoromethyl)-3-(2-hydroxyphenyl)-5H-pyrrolo[3,2-c]pyridazin-5-yl)azetidin-1-yl)ethoxy)isoxazol-5-yl)-3-methylbutanoyl)-4-hydroxy-N—((S)-1-(4-(4-methylthiazol-5-yl)phenyl)ethyl)pyrrolidine-2-carboxamide]
BRM HiBit Degradation Maximum (%) (HiBit-BRM fusion protein): C (“C” indicates maximum degradation <50%) | Dmax [1]: < 50%

Cc1ncsc1-c1ccc([C@H](C)NC(=O)[C@@H]2C[C@@H](O)CN2C(=O)[C@@H](c2cc(OCCN3C[C@@H]4[C@H](C3)[C@H]4n3c(C)cc4nnc(-c5ccccc5O)cc43)no2)C(C)C)cc1 [Compound 33, (2S,4R)-4-hydroxy-1-[(2R)-2-(3-{2-[(1R,5S,6S)-6-[3-(2-hydroxyphenyl)-6-methylpyrrolo[3,2-c]pyridazin-5-yl]-3-azabicyclo[3.1.0]hexan-3-yl]ethoxy}-1,2-oxazol-5-yl)-3-methylbutanoyl]-N-[(1S)-1-[4-(4-methyl-1,3-thiazol-5-yl)phenyl]ethyl]pyrrolidine-2-carboxamide]
BRM HiBit Degradation Maximum (%) (HiBit-BRM fusion protein): C (“C” indicates maximum degradation <50%) | Dmax [1]: < 50%

Cc1ncsc1-c1ccc([C@H](C)NC(=O)[C@@H]2C[C@@H](O)CN2C(=O)[C@@H](c2cc(-c3cnc(N4CC[C@H](c5cc6nnc(-c7ccccc7O)cc6n5C5CC5)C4)nc3)no2)C(C)C)cc1 [Compound 34, (2S,4R)-1-((R)-2-(3-(2-((S)-3-(5-cyclopropyl-3-(2-hydroxyphenyl)-5H-pyrrolo[3,2-c]pyridazin-6-yl)pyrrolidin-1-yl)pyrimidin-5-yl)isoxazol-5-yl)-3-methylbutanoyl)-4-hydroxy-N—((S)-1-(4-(4-methylthiazol-5-yl)phenyl)ethyl)pyrrolidine-2-carboxamide]
BRM HiBit Degradation Maximum (%) (HiBit-BRM fusion protein): A (“A” indicates maximum degradation ≥75%) | DC50 (HiBit-BRM fusion protein): < 10 nM | Dmax [1]: < 50%

Cc1ncsc1-c1ccc([C@H](C)NC(=O)[C@@H]2C[C@@H](O)CN2C(=O)[C@H](c2cc(-c3cnc(N4CC[C@H](c5cc6nnc(-c7ccccc7O)cc6n5C5CC5)C4)nc3)no2)C(C)C)cc1 [Compound 35, (2S,4R)-1-((S)-2-(3-(2-((S)-3-(5-cyclopropyl-3-(2-hydroxyphenyl)-5H-pyrrolo[3,2-c]pyridazin-6-yl)pyrrolidin-1-yl)pyrimidin-5-yl)isoxazol-5-yl)-3-methylbutanoyl)-4-hydroxy-N—((S)-1-(4-(4-methylthiazol-5-yl)phenyl)ethyl)pyrrolidine-2-carboxamide]
BRM HiBit Degradation Maximum (%) (HiBit-BRM fusion protein): A (“A” indicates maximum degradation ≥75%) | DC50 (HiBit-BRM fusion protein): > 100 nM | Dmax [1]: < 50%

Cc1ncsc1-c1ccc([C@H](C)NC(=O)[C@@H]2C[C@@H](O)CN2C(=O)[C@@H](c2cc(-c3cnc(N4CC[C@@H](c5cc6nnc(-c7ccccc7O)cc6n5C5CC5)C4)nc3)no2)C(C)C)cc1 [Compound 36, (2S,4R)-1-((R)-2-(3-(2-((R)-3-(5-cyclopropyl-3-(2-hydroxyphenyl)-5H-pyrrolo[3,2-c]pyridazin-6-yl)pyrrolidin-1-yl)pyrimidin-5-yl)isoxazol-5-yl)-3-methylbutanoyl)-4-hydroxy-N—((S)-1-(4-(4-methylthiazol-5-yl)phenyl)ethyl)pyrrolidine-2-carboxamide]
BRM HiBit Degradation Maximum (%) (HiBit-BRM fusion protein): A (“A” indicates maximum degradation ≥75%) | DC50 (HiBit-BRM fusion protein): < 10 nM | Dmax [1]: > 75% | DC50 [1]: < 10 nM

Cc1ncsc1-c1ccc([C@H](C)NC(=O)[C@@H]2C[C@@H](O)CN2C(=O)[C@H](c2cc(-c3cnc(N4CC[C@@H](c5cc6nnc(-c7ccccc7O)cc6n5C5CC5)C4)nc3)no2)C(C)C)cc1 [Compound 37, (2S,4R)-1-((S)-2-(3-(2-((R)-3-(5-cyclopropyl-3-(2-hydroxyphenyl)-5H-pyrrolo[3,2-c]pyridazin-6-yl)pyrrolidin-1-yl)pyrimidin-5-yl)isoxazol-5-yl)-3-methylbutanoyl)-4-hydroxy-N—((S)-1-(4-(4-methylthiazol-5-yl)phenyl)ethyl)pyrrolidine-2-carboxamide]
BRM HiBit Degradation Maximum (%) (HiBit-BRM fusion protein): A (“A” indicates maximum degradation ≥75%) | DC50 (HiBit-BRM fusion protein): > 10 nM | Dmax [1]: < 50%

Cc1ncsc1-c1ccc([C@H](C)NC(=O)[C@@H]2C[C@@H](O)CN2C(=O)[C@H](c2cc(-c3ccnc(N4CC[C@H](c5cc6nnc(-c7ccccc7O)cc6n5C5CC5)C4)n3)no2)C(C)C)cc1 [Compound 40]
BRM HiBit Degradation Maximum (%) (HiBit-BRM fusion protein): C (“C” indicates maximum degradation <50%) | Dmax [1]: < 50%

Cc1ncsc1-c1ccc([C@H](C)NC(=O)[C@@H]2C[C@@H](O)CN2C(=O)[C@@H](c2cc(-c3ccnc(N4CC[C@H](c5cc6nnc(-c7ccccc7O)cc6n5C5CC5)C4)n3)no2)C(C)C)cc1 [Compound 41]
BRM HiBit Degradation Maximum (%) (HiBit-BRM fusion protein): A (“A” indicates maximum degradation ≥75%) | DC50 (HiBit-BRM fusion protein): > 10 nM | Dmax [1]: < 50%

Cc1ncsc1-c1ccc([C@H](C)NC(=O)[C@@H]2C[C@@H](O)CN2C(=O)[C@H](c2cc(-c3cnc(N4CCC(c5cc6nnc(-c7ccccc7O)cc6n5C5(C)CC5)CC4)nc3)no2)C(C)C)cc1 [Compound 42]
BRM HiBit Degradation Maximum (%) (HiBit-BRM fusion protein): B (“B” indicates maximum degradation ≥50%) | DC50 (HiBit-BRM fusion protein): > 10 nM | Dmax [1]: < 50%

Cc1ncsc1-c1ccc([C@H](C)NC(=O)[C@@H]2C[C@@H](O)CN2C(=O)[C@@H](c2cc(-c3cnc(N4CCC(c5cc6nnc(-c7ccccc7O)cc6n5C5(C)CC5)CC4)nc3)no2)C(C)C)cc1 [Compound 43]
BRM HiBit Degradation Maximum (%) (HiBit-BRM fusion protein): A (“A” indicates maximum degradation ≥75%) | DC50 (HiBit-BRM fusion protein): < 10 nM | Dmax [1]: < 50%

Cc1ncsc1-c1ccc([C@H](C)NC(=O)[C@@H]2C[C@@H](O)CN2C(=O)[C@H](c2cc(-c3cnc(N4CCC(c5cc6nnc(-c7ccccc7O)cc6n5C(C)C)CC4)nc3)no2)C(C)C)cc1 [Compound 44]
BRM HiBit Degradation Maximum (%) (HiBit-BRM fusion protein): B (“B” indicates maximum degradation ≥50%) | DC50 (HiBit-BRM fusion protein): < 10 nM | Dmax [1]: < 50%
